# How the values were obtained:
# cereal = test: Herbicidal post-emergence action with use of safeners, container trials with cereal in a greenhouse (other cereal crop plants); format: in vivo; conditions: 10 days after application
# Procedure: (§1) 1. Herbicidal Post-Emergence Action • Seeds of monocotyledonous and dicotyledonous weed and crop plants are placed in sandy loam in wood fibre pots or in plastic pots, covered with soil and cultivated in a greenhouse, during the vegetation period also outdoors outside of the greenhouse, under good growth conditions. 2 to 3 weeks after sowing, the test plants are treated at one- to three-leaf stage. The test compounds, formulated as wettable powders (WP) or liquid (EC) are, at a water application rate of 300 l/ha (converted), with wetting agent (0.2 to 0.3%) added, sprayed at various dosages onto the plants and the surface of the soil. 3 to 4 weeks after treatment of the test plants, the effect of the preparations is rated visually in comparison to untreated controls (herbicidal activity in percent: 100% activity=the plants have died, 0% activity=like control plants).
# (§2) Use of Safeners: • If it is additionally to be tested as to whether safeners can improve the plant compatibility of test substances in the case of crop plants, the following options are used for applying the safeners: • seeds of the crop plants are, before sowing, dressed with the safener substance (the amount of safener stated in percent, based on the weight of the seed) • before application of the test substances, the crop plants are sprayed with the safener at a certain application rate per hectare (usually 1 day before the application of the test substances) • the safener is applied together with the test substance as a tank mix (the amount of safener stated in g/ha or as a ratio, based on the herbicide). • Container trials with cereal in a greenhouse • mefenpyr 1 day prior to herbicide application
# [1] = system: cotton aphid (Aphis gossypii); test: Aphis gossypii test (APHIGO) with ammonium salts and/or penetrants; format: in vivo; conditions: for % efficacy after 6 days +AMS: +AMS (ammonium sulphate) 1000 ppm; for % efficacy after 6 days +RME: +RME (rapeseed oil methyl ester) 1000 ppm; for % efficacy after 6 days +RME + AMS: each 1000 ppm
# Procedure: Aphis gossypii Test (APHIGO)
# Solvents: 7 parts by weight of dimethylformamide
# (§3) Emulsifier: 2 parts by weight of alkylaryl polyglycol ether
# (§4) To produce a suitable preparation of active compound, 1 part by weight of active compound is mixed with the stated amounts of solvents and emulsifier, and the concentrate is diluted with emulsifier-containing water to the desired concentration. For the required application of ammonium salts, penetrants or ammonium salts and penetrants, these are in each case added with a pipette after dilution of the respective finished solution of the preparation at a concentration of 1000 ppm.
# Cotton leaves (Gossypium hirsutum) which are heavily infested by the cotton aphid (Aphis gossypii) are sprayed with an active compound preparation of the desired concentration.
# After the desired period of time, the kill in % is determined. 100% means that all aphids have been killed; 0% means that none of the aphids have been killed.
# [2] = system: green peach aphid (Myzus persicaei); test: Myzus persicae test (MYZUPE) with ammonium salts and/or penetrants; format: in vivo; conditions: for % efficacy after 6 days +AMS: +AMS (ammonium sulphate) 1000 ppm; for % efficacy after 6 days +RME: +RME (rapeseed oil methyl ester) 1000 ppm; for % efficacy after 6 days +RME + AMS: each 1000 ppm
# Procedure: Myzus persicae Test (MYZUPE)
# Solvent: 7 parts by weight of dimethylformamide
# as §3, §4
# Paprika plants (Capsicum annuum) which are heavily infested by the green peach aphid (Myzus persicaei) are treated by being sprayed with the preparation of active compound of the desired concentration.
# After the desired period of time, the kill in % is determined. 100% means that all animals have been killed; 0% means that none of the animals have been killed.
# [3] = Determination of the logP values by HPLC on a reverse-phase column (C 18); format: physicochemical
# Procedure: Determination of the logP Values
# The logP values given in the table were determined in accordance with EEC Directive 79/831 Annex V.A8 by HPLC (high performance liquid chromatography) on a reverse-phase column (C 18). Temperature: 55° C.
# Mobile phases for the determination in the acidic range (pH 3.4):
# Mobile phase A: acetonitrile+1 ml of formic acid/liter. Mobile phase B: water+0.9 ml of formic acid/liter.
# Gradient: from 10% mobile phase A/90% mobile phase B to 95% mobile phase A/5% mobile phase B over 4.25 min.
# Calibration was carried out using unbranched alkan-2-ones (having 3 to 16 carbon atoms) with known logP values (determination of the logP values by the retention times using linear interpolation between two successive alkanones). The lambda max values were determined in the maxima of the chromatographic signals using the UV spectra from 200 nm to 400 nm.
# Summer wheat = test: Herbicidal post-emergence action with use of safeners, container trials with cereal in a greenhouse; format: in vivo; conditions: 28 days after application
# Procedure: as §1, §2
# [4] = HPLC on a reverse-phase column (C 18), separated α/β isomers
smiles,measurement,setting,value
COc1cc(C)cc(Cl)c1C1=C(O)C2(CCC3(CCCO3)CC2)NC1=O (mixture of isomers) [Example I-1-a-13],Summer barley observed (%),cereal; 12.5 g of a.i./ha,20%
same,Summer barley observed (%),cereal; 25 g of a.i./ha,20%
same,Summer barley observed (%),cereal; 50 g of a.i./ha,30%
Cc1cc(Cl)cc(C)c1C1=C(O)C2(CCC3(CCCO3)CC2)NC1=O (mixture of isomers) [Example I-1-a-6],% efficacy after 6 days +AMS,[1]; 20 ppm,5%
same,% efficacy after 6 days +RME,[1]; 20 ppm,60%
same,% efficacy after 6 days +RME + AMS,[1]; 20 ppm,95%
same,% efficacy after 6 days without additive,[1]; 20 ppm,35%
Cc1cc(C)c(C2=C(O)C3(CCC4(CCCO4)CC3)NC2=O)c(C)c1 (mixture of isomers) [Example I-1-a-4],% efficacy after 6 days +AMS,[2]; 0.8 ppm,0%
same,% efficacy after 6 days +RME,[2]; 0.8 ppm,60%
same,% efficacy after 6 days +RME + AMS,[2]; 0.8 ppm,99%
same,% efficacy after 6 days without additive,[2]; 0.8 ppm,10%
same,% efficacy after 6 days +AMS,[2]; 4 ppm,80%
same,% efficacy after 6 days +RME,[2]; 4 ppm,90%
same,% efficacy after 6 days +RME + AMS,[2]; 4 ppm,98%
same,% efficacy after 6 days without additive,[2]; 4 ppm,75%
same,% efficacy after 6 days +AMS,[1]; 0.8 ppm,0%
same,% efficacy after 6 days +RME,[1]; 0.8 ppm,15%
same,% efficacy after 6 days +RME + AMS,[1]; 0.8 ppm,45%
same,% efficacy after 6 days without additive,[1]; 0.8 ppm,10%
same,% efficacy after 6 days +AMS,[1]; 4 ppm,75%
same,% efficacy after 6 days +RME,[1]; 4 ppm,75%
same,% efficacy after 6 days +RME + AMS,[1]; 4 ppm,80%
same,% efficacy after 6 days without additive,[1]; 4 ppm,60%
Cc1cc(Br)cc(C)c1C1=C(O)C2(CCC3(CCCO3)CC2)NC1=O (mixture of isomers) [Example I-1-a-8],% efficacy after 6 days +AMS,[2]; 0.8 ppm,0%
same,% efficacy after 6 days +RME,[2]; 0.8 ppm,20%
same,% efficacy after 6 days +RME + AMS,[2]; 0.8 ppm,99%
same,% efficacy after 6 days without additive,[2]; 0.8 ppm,0%
same,% efficacy after 6 days +AMS,[2]; 4 ppm,98%
same,% efficacy after 6 days +RME,[2]; 4 ppm,99%
same,% efficacy after 6 days +RME + AMS,[2]; 4 ppm,100%
same,% efficacy after 6 days without additive,[2]; 4 ppm,45%
"Cc1cc(C)c(C2=C(O)C3(CCC4(CCCO4)CC3)OC2=O)cc1C (single isomer, unassigned) [Example I-2-a-48]",log P*,[3]; [4],2.99
"CCc1cc(C)cc(CC)c1C1=C(O)C2(CCC3(CCCO3)CC2)OC1=O (single isomer, unassigned) [Example I-2-a-16]",log P*,[3]; [4],2.99
Cc1ccc(C)c(C2=C(OC(=O)C(C)C)C3(CCC4(CCCO4)CC3)OC2=O)c1 (centres unmarked) [Example I-2-b-5],log P*,[3]; compounds of formula (I-2-b),4.22
"Cc1cc(C)c(C2=C(O)C3(CCC4(CCCO4)CC3)OC2=O)c(C)c1 (single isomer, unassigned) [Example I-2-a-4]",log P*,[3]; [4],2.52
Cc1cc(C)c(-c2ccc(Cl)cc2)cc1C1=C(O)C2(CCC3(CCCO3)CC2)OC1=O (centres unmarked) [Example I-2-a-27],log P*,[3]; [4],3.60
"CCc1cc(C)cc(Br)c1C1=C(O)C2(CCC3(CCCO3)CC2)OC1=O (single isomer, unassigned) [Example I-2-a-28]",log P*,[3]; [4],2.73
COc1cccc(C)c1C1=C(OC(=O)C(C)C)C2(CCC3(CCCO3)CC2)OC1=O (centres unmarked) [Example I-2-b-20],log P*,[3]; compounds of formula (I-2-b),4.25
"CCc1cc(Cl)cc(CC)c1C1=C(O)C2(CCC3(CCCO3)CC2)OC1=O (single isomer, unassigned) [Example I-2-a-8]",log P*,[3]; [4],3.09
Cc1ccc(-c2ccc(F)cc2)c(C)c1C1=C(O)C2(CCC3(CCCO3)CC2)OC1=O (centres unmarked) [Example I-2-a-46],log P*,[3]; [4],3.69
"Cc1cc(C)c(C2=C(O)C3(CCC4(CCCO4)CC3)OC2=O)c(Br)c1 (single isomer, unassigned) [Example I-2-a-32]",log P*,[3]; [4],2.48
Cc1ccc(-c2ccc(Cl)cc2)c(C)c1C1=C(O)C2(CCC3(CCCO3)CC2)OC1=O (centres unmarked) [Example I-2-a-18],log P*,[3]; [4],3.52
Cc1cc(C)c(-c2ccc(Cl)cc2)cc1C1=C(OC(=O)C(C)C)C2(CCC3(CCCO3)CC2)OC1=O (centres unmarked) [Example I-2-b-4],log P*,[3]; compounds of formula (I-2-b),6.24
CCc1cc(Cl)cc(OC)c1C1=C(O)C2(CCC3(CCCO3)CC2)NC1=O (mixture of isomers) [Example I-1-a-11],Summer wheat observed (%),Summer wheat; 12.5 g of a.i./ha,65%
same,Summer wheat observed (%),Summer wheat; 25 g of a.i./ha,70%
same,Summer wheat observed (%),Summer wheat; 50 g of a.i./ha,80%
same,Summer wheat observed (%),Summer wheat; 100 g of a.i./ha,95%
Cc1ccc(-c2ccc(Cl)cc2)c(C)c1C1=C(OC(=O)C(C)(C)C)C2(CCC3(CCCO3)CC2)OC1=O (centres unmarked) [Example I-2-b-16],log P*,[3]; compounds of formula (I-2-b),6.09
"Cc1cc(C)c(C2=C(O)C3(CCC4(CCCO4)CC3)OC2=O)c(C)c1 (single isomer, unassigned) [Example I-2-a-5]",log P*,[3]; [4],3.00
CCc1cc(C)cc(CC)c1C1=C(OC(=O)C(C)(C)C)C2(CCC3(CCCO3)CC2)OC1=O (centres unmarked) [Example I-2-b-25],log P*,[3]; compounds of formula (I-2-b),6.25
"Cc1cc(C)c(C2=C(O)C3(CCC4(CCCO4)CC3)OC2=O)c(Br)c1 (single isomer, unassigned) [Example I-2-a-33]",log P*,[3]; [4],2.95
Cc1ccc(-c2ccc(Cl)cc2)cc1C1=C(O)C2(CCC3(CCCO3)CC2)OC1=O (centres unmarked) [Example I-2-a-25],log P*,[3]; [4],3.87
"COc1cc(C)cc(C)c1C1=C(O)C2(CCC3(CCCO3)CC2)OC1=O (single isomer, unassigned) [Example I-2-a-10]",log P*,[3]; [4],2.28

# — patent US8859466B2, “Oxaspirocyclic spiro-substituted tetramic acid and tetronic acid derivatives” (Bayer CropScience AG, priority 2007, dated 2014)
